Format in all cases: cell-based
One assay has as its target adenosine 2a (Homo sapiens, UniProt P29274). Put plainly: Agonist activity against adenosine receptor subtypes, CHO cells with cAMP response element/SPAP reporter (basal cAMP). As to conditions: ratio to EC50 of NECA; transfected CHO cells; effect on basal cAMP via SPAP. As to the method: (§1) Compounds of the invention were tested for in vitro and in vivo biological activity in accordance with the following screens: • (1) Agonist activity against adenosine 2a, adenosine 1 and adenosine 3 receptor subtypes.
(§2) Agonist selectivity of compounds against other human adenosine receptors was determined using Chinese hamster ovary (CHO) cells transfected with the gene for the relevant human adenosine receptor following a method based on that of Castanon and Spevak, 1994 . The CHO cells were also transfected with cyclic AMP response elements promoting the gene for secreted placental alkaline phosphatase (SPAP) (Wood, 1995). The effect of test compounds was determined by their effects on basal levels of cAMP (A2a) or on forskolin-enhanced cAMP (A1 and A3) as reflected by changes in levels of SPAP. EC50 values for compounds were then determined as a ratio to that of the non-selective agonist N-ethyl carboxamide adenosine (NECA).

For the next assay, the target named is T1, adenosine 3 (Homo sapiens, UniProt P0DMS8).
T1 sequence (P0DMS8 1-318): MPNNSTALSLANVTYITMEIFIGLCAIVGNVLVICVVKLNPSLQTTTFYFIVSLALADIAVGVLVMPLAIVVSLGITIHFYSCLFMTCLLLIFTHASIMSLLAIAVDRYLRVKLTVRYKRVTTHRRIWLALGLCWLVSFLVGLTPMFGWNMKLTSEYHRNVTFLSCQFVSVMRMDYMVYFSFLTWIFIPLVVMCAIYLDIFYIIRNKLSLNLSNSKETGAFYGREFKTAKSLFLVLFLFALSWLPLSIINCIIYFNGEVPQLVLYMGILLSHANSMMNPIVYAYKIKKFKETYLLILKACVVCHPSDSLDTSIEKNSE
Briefly: Agonist activity against adenosine receptor subtypes, CHO cells with cAMP response element/SPAP reporter (forskolin-enhanced cAMP). The settings on record: ratio to EC50 of NECA; transfected CHO cells; effect on forskolin-enhanced cAMP via SPAP. As to the method: as §1, §2

A further assay concerns the target T2, adenosine 1 (Homo sapiens, UniProt P30542).
T2 sequence (P30542 1-326): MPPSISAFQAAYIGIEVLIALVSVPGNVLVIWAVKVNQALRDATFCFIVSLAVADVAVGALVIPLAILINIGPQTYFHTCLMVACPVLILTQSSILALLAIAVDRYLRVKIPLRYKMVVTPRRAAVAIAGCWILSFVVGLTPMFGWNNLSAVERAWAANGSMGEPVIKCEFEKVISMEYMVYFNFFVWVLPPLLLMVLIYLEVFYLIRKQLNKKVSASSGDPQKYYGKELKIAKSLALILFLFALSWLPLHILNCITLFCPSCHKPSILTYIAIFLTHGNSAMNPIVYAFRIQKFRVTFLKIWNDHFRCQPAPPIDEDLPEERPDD
The assay is described as above. As to conditions: ratio to EC50 of NECA; transfected CHO cells; effect on forskolin-enhanced cAMP via SPAP. As to the method: as §1, §2

The structures appear in SMILES notation. Bounds are passed on as bounds.

adenosine 2a, sequence (P29274 whole entry): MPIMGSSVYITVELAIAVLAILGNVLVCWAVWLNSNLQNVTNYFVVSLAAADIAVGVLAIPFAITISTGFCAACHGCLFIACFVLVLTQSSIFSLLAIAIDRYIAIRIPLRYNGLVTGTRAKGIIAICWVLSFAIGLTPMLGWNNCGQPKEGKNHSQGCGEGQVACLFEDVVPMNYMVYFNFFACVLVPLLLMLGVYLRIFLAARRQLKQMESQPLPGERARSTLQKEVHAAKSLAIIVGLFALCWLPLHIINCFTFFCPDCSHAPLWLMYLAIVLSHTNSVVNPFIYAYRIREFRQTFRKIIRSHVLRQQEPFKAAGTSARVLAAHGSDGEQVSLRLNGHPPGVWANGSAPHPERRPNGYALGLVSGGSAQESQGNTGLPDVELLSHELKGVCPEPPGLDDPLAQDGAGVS

Take `CCc1nnc([C@H]2O[C@@H](n3cnc4c(NCC(c5ccccc5)c5ccccc5)nc(N[C@H]5CC[C@H](N)CC5)nc43)[C@H](O)[C@@H]2O)[nH]1.O=CO` [Example 6, (2R,3R,4S,5R)-2-[2-(trans-4-Amino-cyclohexylamino)-6-(2,2-diphenyl-ethylamino)-purin-9-yl]-5-(5-ethyl-4H-[1,2,4]triazol-3-yl)-tetrahydro-furan-3,4-diol formate]: the “A2a (EC50 values as a ratio of that of NECA)” value on adenosine 2a was 12.3. Also, on adenosine 3, the “A3 (EC50 values as a ratio of that of NECA)” value is on record as greater than 183. Besides, the “A1 (EC50 values as a ratio of that of NECA)” value on adenosine 1 is recorded as 6739.

For `CCc1nnc([C@H]2O[C@@H](n3cnc4c(NCC(c5ccccc5)c5ccccc5)nc(NCCc5ccccn5)nc43)[C@H](O)[C@@H]2O)o1.O=CO` [Example 24, (2R,3R,4S,5S)-2-[6-(2,2-Diphenyl-ethylamino)-2-(2-pyridin-2-yl-ethylamino)-purin-9-yl]-5-(5-ethyl-[1,3,4]oxadiazol-2-yl)-tetrahydro-furan-3,4-diol formate], the “A2a (EC50 values as a ratio of that of NECA)” value at adenosine 2a was determined as 6.04. The “A3 (EC50 values as a ratio of that of NECA)” value on adenosine 3 is reported as greater than 175. In addition, the “A1 (EC50 values as a ratio of that of NECA)” value on adenosine 1 turned out to be 390.97.

Consider `Cc1nnc([C@H]2O[C@@H](n3cnc4c(NCC(c5ccccc5)c5ccccc5)nc(N[C@H](CO)Cc5ccccc5)nc43)[C@H](O)[C@@H]2O)[nH]1.O=CO` [Example 2, (2R,3R,4S,5R)-2-[6-(2,2-Diphenyl-ethylamino)-2-(1S-hydroxymethyl-2-phenyl-ethylamino)-purin-9-yl]-5-(5-methyl-4H-[1,2,4]triazol-3-yl)-tetrahydro-furan-3,4-diol formate], for which the “A2a (EC50 values as a ratio of that of NECA)” value at adenosine 2a was 2.46. Besides, on adenosine 3, the “A3 (EC50 values as a ratio of that of NECA)” value is greater than 1087. In addition, on adenosine 1, the “A1 (EC50 values as a ratio of that of NECA)” value is reported as “>=7728”.

Turning to `CCC(CC)Nc1nc(N[C@H]2CC[C@H](N)CC2)nc2c1ncn2[C@@H]1O[C@H](c2nnc(C3CC3)o2)[C@@H](O)[C@H]1O.O=CO.O=CO` (relative stereo) [Example 36, (2R,3R,4S,5S)-2-[2-(trans-4-Amino-cyclohexylamino)-6-(1-ethyl-propylamino)-purin-9-yl]-5-(5-cyclopropyl-[1,3,4]oxadiazol-2-yl)-tetrahydro-furan-3,4-diol diformate], the “A2a (EC50 values as a ratio of that of NECA)” value on adenosine 2a is reported as 26.3. Besides, the “A3 (EC50 values as a ratio of that of NECA)” value on adenosine 3 is greater than 173. The “A1 (EC50 values as a ratio of that of NECA)” value at adenosine 1 was 1105.6.

For the molecule `CCC(CC)Nc1nc(NCCc2cn(C)cn2)nc2c1ncn2[C@@H]1O[C@H](c2nnc(C3CC3)o2)[C@@H](O)[C@H]1O.O=CO.O=CO` [Example 37], the “A2a (EC50 values as a ratio of that of NECA)” value at adenosine 2a stood at 6.39. In addition, the “A3 (EC50 values as a ratio of that of NECA)” value at adenosine 3 is recorded as greater than 173. Further, the “A1 (EC50 values as a ratio of that of NECA)” value at adenosine 1 stood at 581.9.

On to `CCC(CC)Nc1nc(NC2CCCC2)nc2c1ncn2[C@@H]1O[C@H](c2nnc(C3CC3)o2)[C@@H](O)[C@H]1O.O=CO.O=CO` [Example 39, (2R,3R,4S,5S)-2-[2-Cyclopentylamino-6-(1-ethyl-propylamino)-purin-9-yl]-5-(5-cyclopropyl-[1,3,4]oxadiazol-2-yl)-tetrahydro-furan-3,4-diol diformate], for which the “A2a (EC50 values as a ratio of that of NECA)” value at adenosine 2a is 129.5. Also, the “A3 (EC50 values as a ratio of that of NECA)” value on adenosine 3 was greater than 173. On adenosine 1, the “A1 (EC50 values as a ratio of that of NECA)” value is “>=1067”.

On to `Cc1nnc([C@H]2O[C@@H](n3cnc4c(NCC(c5ccccc5)c5ccccc5)nc(N[C@H](CO)Cc5ccccc5)nc43)[C@H](O)[C@@H]2O)s1.O=CO` [Example 20, (2R,3R,4S,5S)-2-[6-(2,2-Diphenyl-ethylamino)-2-(1S-hydroxymethyl-2-phenyl-ethylamino)-purin-9-yl]-5-(5-methyl-[1,3,4]thiadiazol-2-yl)-tetrahydro-furan-3,4-diol formate], for which the “A2a (EC50 values as a ratio of that of NECA)” value at adenosine 2a is given as 17.7. Moreover, on adenosine 3, the “A3 (EC50 values as a ratio of that of NECA)” value is reported as greater than 470. For the same molecule, the “A1 (EC50 values as a ratio of that of NECA)” value on adenosine 1 turned out to be 2625.

On to `CCn1cnc([C@H]2O[C@@H](n3cnc4c(NCC(c5ccccc5)c5ccccc5)nc(NCCc5ccccn5)nc43)[C@H](O)[C@@H]2O)n1.O=CO.O=CO` [Example 33, (2R,3R,4S,5R)-2-[6-(2,2-Diphenyl-ethylamino)-2-(2-pyridin-2-yl-ethylamino)-purin-9-yl]-5-(1-ethyl-1H-[1,2,4]triazol-3-yl)-tetrahydro-furan-3,4-diol diformate], for which the “A2a (EC50 values as a ratio of that of NECA)” value on adenosine 2a is 34.25. Besides, the “A3 (EC50 values as a ratio of that of NECA)” value on adenosine 3 was greater than 206. For the same molecule, on adenosine 1, the “A1 (EC50 values as a ratio of that of NECA)” value turned out to be 4999.7.

In the case of `CCn1cnc(C2OC(n3cnc4c(NCC(c5ccccc5)c5ccccc5)nc(NC5CCNC5)nc43)C(O)C2O)n1.O=CO.O=CO` [Example 34, (2R,3R,4S,5R)-2-[6-(2,2-Diphenyl-ethylamino)-2-(pyrrolidin-3R-ylamino)-purin-9-yl]-5-(1-ethyl-1H-[1,2,4]triazol-3-yl)-tetrahydro-furan-3,4-diol diformate], the “A2a (EC50 values as a ratio of that of NECA)” value at adenosine 2a is 10.97. Also, the “A3 (EC50 values as a ratio of that of NECA)” value on adenosine 3 was greater than 231. The “A1 (EC50 values as a ratio of that of NECA)” value on adenosine 1 was 1980.8.

With `CCC(CC)Nc1nc(NCCN2CCCCC2)nc2c1ncn2C1OC(c2nnc(C3CC3)o2)C(O)C1O.O=CO.O=CO` (stereo not drawn) [Example 38], at adenosine 2a, the “A2a (EC50 values as a ratio of that of NECA)” value was found to be 45.64. In addition, at adenosine 3, the “A3 (EC50 values as a ratio of that of NECA)” value is recorded as greater than 173. Further, the “A1 (EC50 values as a ratio of that of NECA)” value on adenosine 1 is recorded as 365.6.

In the case of `Cc1nnc([C@H]2O[C@@H](n3cnc4c(NCC(c5ccccc5)c5ccccc5)nc(NCCN5CCCC5)nc43)[C@H](O)[C@@H]2O)[nH]1.O=CO` [Example 1, (2R,3R,4S,5R)-2-[6-(2,2-Diphenyl-ethylamino)-2-(2-pyrrolidin-1-yl-ethylamino)-purin-9-yl]-5-(5-methyl-4H-[1,2,4]triazol-3-yl)-tetrahydro-furan-3,4-diol formate], at adenosine 2a, the “A2a (EC50 values as a ratio of that of NECA)” value is 14.6. The “A3 (EC50 values as a ratio of that of NECA)” value at adenosine 3 is recorded as greater than 1088. Moreover, the “A1 (EC50 values as a ratio of that of NECA)” value at adenosine 1 is greater than 8325.

Turning to `CCc1cc([C@H]2O[C@@H](n3cnc4c(NC(CC)CC)nc(NCCN5CCCCC5)nc43)[C@H](O)[C@@H]2O)no1.O=CO.O=CO` [Example 43, (2R,3R,4S,5R)-2-[6-(1-Ethyl-propylamino)-2-(2-piperidin-1-yl-ethylamino)-purin-9-yl]-5-(5-ethylisoxazol-3-yl)tetrahydrofuran-3,4-diol diformate], the “A2a (EC50 values as a ratio of that of NECA)” value on adenosine 2a amounted to 3.25. On adenosine 3, the “A3 (EC50 values as a ratio of that of NECA)” value is given as greater than 1124. Further, the “A1 (EC50 values as a ratio of that of NECA)” value on adenosine 1 amounted to 21.82.

For `CCc1nnc([C@H]2O[C@@H](n3cnc4c(NCC(c5ccccc5)c5ccccc5)nc(N[C@@H]5CCNC5)nc43)[C@H](O)[C@@H]2O)[nH]1.O=CO` [Example 9, (2R,3R,4S,5R)-2-[6-(2,2-Diphenyl-ethylamino)-2-(pyrrolidin-3R-ylamino)-purin-9-yl]-5-(5-ethyl-4H-[1,2,4]triazol-3-yl)-tetrahydro-furan-3,4-diol formate], at adenosine 2a, the “A2a (EC50 values as a ratio of that of NECA)” value stood at 3.25. Besides, the “A3 (EC50 values as a ratio of that of NECA)” value at adenosine 3 is listed as greater than 147. Also, the “A1 (EC50 values as a ratio of that of NECA)” value on adenosine 1 is greater than 6032.

With `CCc1nc([C@H]2O[C@@H](n3cnc4c(NCC(c5ccccc5)c5ccccc5)nc(NCCc5cn(C)cn5)nc43)[C@H](O)[C@@H]2O)no1.O=CO` [Example 13, (2R,3R,4S,5R)-2-{6-(2,2-Diphenyl-ethylamino)-2-[2-(1-methyl-1H-imidazol-4-yl)-ethylamino]-purin-9-yl}-5-(5-ethyl-[1,2,4]oxadiazol-3-yl)-tetrahydro-furan-3,4-diol formate], the “A2a (EC50 values as a ratio of that of NECA)” value at adenosine 2a turned out to be 1.29. For the same molecule, the “A3 (EC50 values as a ratio of that of NECA)” value on adenosine 3 was greater than 194. Further, on adenosine 1, the “A1 (EC50 values as a ratio of that of NECA)” value is recorded as 6620.

For the molecule `CCn1cnc([C@H]2O[C@@H](n3cnc4c(NCC(c5ccccc5)c5ccccc5)nc(NCCc5cn(C)cn5)nc43)[C@H](O)[C@@H]2O)n1.O=CO.O=CO` [Example 31, (2R,3R,4S,5R)-2-{6-(2,2-Diphenyl-ethylamino)-2-[2-(1-methyl-1H-imidazol-4-yl)-ethylamino]-purin-9-yl}-5-(1-ethyl-1H-[1,2,4]triazol-3-yl)-tetrahydro-furan-3,4-diol diformate], at adenosine 2a, the “A2a (EC50 values as a ratio of that of NECA)” value is given as 8.79. Besides, the “A3 (EC50 values as a ratio of that of NECA)” value at adenosine 3 is on record as greater than 206. Moreover, the “A1 (EC50 values as a ratio of that of NECA)” value at adenosine 1 was determined as 1753.5.

(Values after patent EP1090023B1 (GLAXO GROUP LIMITED, priority 1998, dated 1999).)
